Like-named read-outs stand apart in the source and are kept apart here.
Biological target: T1, human p38 kinase alpha (Homo sapiens, UniProt Q16539)
T1 construct: GST (N, cleaved yes); made in house; host or cells: E. coli DH10B
Test: p38 kinase in vitro assay, phosphorylation of biotinylated PHAS-I with 32P-ATP
Format: biochemical

[1] = in vitro P38-alpha kinase inhibition, read-out: P38 alpha kinase IC50
[2] = in vitro P38-alpha kinase, read-out: P38 alpha kinase IC50

T1 sequence (Q16539 whole entry): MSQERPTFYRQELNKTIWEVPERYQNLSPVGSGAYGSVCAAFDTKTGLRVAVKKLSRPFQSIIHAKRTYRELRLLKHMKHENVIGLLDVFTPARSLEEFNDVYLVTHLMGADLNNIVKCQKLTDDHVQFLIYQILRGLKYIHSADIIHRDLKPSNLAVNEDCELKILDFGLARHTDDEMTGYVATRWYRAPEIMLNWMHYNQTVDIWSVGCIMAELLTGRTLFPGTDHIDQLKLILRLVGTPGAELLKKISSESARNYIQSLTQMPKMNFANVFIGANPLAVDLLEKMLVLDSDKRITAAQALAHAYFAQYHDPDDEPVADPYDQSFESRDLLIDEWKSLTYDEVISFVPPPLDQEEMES

## CCCOC(=O)NC(Cc1ccccc1)c1[nH]nc(-c2ccc(F)cc2)c1-c1ccncc1 (stereo not drawn) [Example B-0747]
[1]
  IC50: 1100 nM

## Cc1ccccc1C(=O)NC(C)c1[nH]nc(-c2ccc(F)cc2)c1-c1ccncc1 (stereo not drawn) [Example B-0669]
[1]
  IC50: 890 nM

## CCCCS(=O)(=O)NCCCc1[nH]nc(-c2ccc(F)cc2)c1-c1ccncc1 [Example B-1199]
@ 1.0 uM
  P38 alpha kinase % inhib @ conc.: 87.0% @

## O=C(NCCCc1[nH]nc(-c2ccc(F)cc2)c1-c1ccncc1)c1ccc(F)cc1F [Example B-1353]
[2]
  IC50: 62 nM

## Cc1c(-c2ccncc2)c(-c2ccc(F)cc2)nn1CC(=O)Nc1ccccc1C(C)(C)C [Example B-2435]
@ 10.0 uM
  P38 alpha kinase IC50, uM or % inhib @ conc. (uM): % inhib: 84.0% @

## C[C@@H](NS(=O)(=O)Cc1ccccc1[N+](=O)[O-])c1[nH]nc(-c2ccc(F)cc2)c1-c1ccncc1 [Example B-0442]
[1]
  IC50: < 100 nM

## CCCCCCCOc1ccc(NC(=O)Cn2nc(-c3ccc(F)cc3)c(-c3ccncc3)c2C)cc1 [Example B-2452]
@ 10.0 uM
  P38 alpha kinase IC50, uM or % inhib @ conc. (uM): % inhib: 89.0% @

## CCCNC(=O)NCCc1[nH]nc(-c2ccc(F)cc2)c1-c1ccncc1 [Example B-1041]
@ 1.0 uM
  P38 alpha kinase % inhib @ conc. (uM): 70.0% @

## O=C(NCCCc1[nH]nc(-c2ccc(F)cc2)c1-c1ccncc1)c1cc(F)cc(C(F)(F)F)c1 [Example B-1342]
[2]
  IC50: 250 nM

## CCN(CC)C1CCN(C(=O)Cn2nc(-c3ccc(F)cc3)c(-c3ccncc3)c2C)C1 (stereo not drawn) [Example B-2391]
@ 10.0 uM
  P38 alpha kinase IC50, uM or % inhib @ conc. (uM): % inhib: 40.0% @

## COc1ccccc1C(=O)NCCCc1[nH]nc(-c2ccc(F)cc2)c1-c1ccncc1 [Example B-1172]
@ 1.0 uM
  P38 alpha kinase % inhib @ conc. (uM): 68.0% @

## CC(NS(=O)(=O)c1cccc(Cl)c1Cl)c1[nH]nc(-c2ccc(F)cc2)c1-c1ccncc1 (stereo not drawn) [Example B-0622]
[1]
  IC50: 76 nM

## O=C(c1c(Cl)cccc1Cl)N1CCC(c2[nH]nc(-c3ccc(F)cc3)c2-c2ccncc2)CC1 [Example B-1413]
[2]
  IC50: 16 nM

## O=C(NCCc1[nH]nc(-c2ccc(F)cc2)c1-c1ccncc1)c1c(F)cccc1F [Example B-1151]
[1]
  IC50: 320 nM

## CCNC(=O)Cn1nc(-c2ccc(F)cc2)c(-c2ccncc2)c1C [Example B-2311]
[2]
  IC50: 7180 nM

## Cc1c(-c2ccncc2)c(-c2ccc(F)cc2)nn1CC(=O)Nc1ccc(CSc2ccc(Cl)cc2)cc1 [Example B-2461]
@ 10.0 uM
  P38 alpha kinase IC50, uM or % inhib @ conc. (uM): % inhib: 67.0% @

## O=S(=O)(NCCCc1[nH]nc(-c2ccc(F)cc2)c1-c1ccncc1)c1ccc(C(F)(F)F)cc1 [Example B-1264]
[2]
  IC50: 320 nM

## O=C(NCCCc1[nH]nc(-c2ccc(F)cc2)c1-c1ccncc1)c1cccc(F)c1 [Example B-1346]
[2]
  IC50: 43 nM

## O=C(O)CCC(=O)N1CCN(c2n[nH]c(-c3ccc(Cl)cc3)c2-c2ccncc2)CC1 [A-321 (dihydrate), 4-[5-(4-chlorophenyl)-4-(4-pyridinyl)-1H-pyrazol-3-yl]-γ-oxo-1-piperazinebutanoic acid, dihydrate]
Table 8, 1% DMSO, read-out: p38α Kinase Assay IC50
  IC50: 770 nM

## Cc1ccc(S(C)(=O)=O)cc1S(=O)(=O)NCCc1[nH]nc(-c2ccc(F)cc2)c1-c1ccncc1 [Example B-1119]
[1]
  IC50: 350 nM

## CCN(CC)CC(C)NC(=O)Cn1nc(-c2ccc(F)cc2)c(-c2ccncc2)c1C (stereo not drawn) [Example B-2337]
@ 10.0 uM
  P38 alpha kinase % inhib @ conc.: 46.0% @

## CC(C)COC(=O)NCCCc1[nH]nc(-c2ccc(F)cc2)c1-c1ccncc1 [Example B-1187]
@ 1.0 uM
  P38 alpha kinase % inhib @ conc. (uM): 76.0% @

## O=C(c1ccc(Cl)cc1Cl)N1CCC(c2[nH]nc(-c3ccc(F)cc3)c2-c2ccncc2)CC1 [Example B-1417]
[2]
  IC50: 69 nM

## Cc1c(C)c(S(=O)(=O)NC(C)c2[nH]nc(-c3ccc(F)cc3)c2-c2ccncc2)c(C)c2c1OC(C)(C)CC2 (stereo not drawn) [Example B-0659]
[1]
  IC50: 2640 nM

## COc1ccc(C)cc1S(=O)(=O)NCCCc1[nH]nc(-c2ccc(F)cc2)c1-c1ccncc1 [Example B-1275]
[2]
  IC50: < 100 nM

## O=C(NCCc1[nH]nc(-c2ccc(F)cc2)c1-c1ccncc1)c1c(F)ccc(F)c1F [Example B-1131]
[1]
  IC50: 76 nM

## CCCCOc1ccc(NC(=O)NCCc2[nH]nc(-c3ccc(F)cc3)c2-c2ccncc2)cc1 [Example B-0944]
@ 1.0 uM
  P38 alpha kinase % inhib @ conc. (uM): 45.0% @
